In patent US8632982B2, “Biomarkers for liver injury” (Institute for Systems Biology, priority 2009, dated 2014):

Test system: C57BL6/J mice
Test: Murine model: liver damage induced with acetaminophen, serum markers by SPR antibody array and Western blot
Assay type: in vivo
Conditions: male C57BL6/J mice, 300 mg/kg intraperitoneally
Experimental: The effectiveness of various proteins as markers was tested by inducing liver damage in mice using acetaminophen and then assessing serum for various proteins by surface plasmon resonance (SPR) detection of complex formation with the relevant antibody and confirmed by Western blot. The known marker, AST, was used as a control.
Nine week old male C57BL6/J mice were fasted for 24 hours and then administered 300 mg/kg acetaminophen intraperitoneally. The mice were euthanized with CO2 and whole blood was collected via cardiac puncture at various time intervals. The whole blood was incubated at 4° C. for 12 hours and centrifuged at 2,000 g for 10 minutes to obtain serum which was stored at −80° C. and then analyzed by SPR antibody array as described above and validated by Western blot. (The concentration of the known marker serum […] (AST) was determined by enzymatic assay.)

Q: How did the “plasma levels of plasminogen and RBP4 (Western blot, FIG. 3)” value (12-24 hours) turn out when `CC(=O)Nc1ccc(O)cc1` [acetaminophen] was run?
A: Its value is “decrease”.

Q: What about the “serum levels of control marker AST (enzymatic assay)” value (same time as the novel markers) of the same compound?
A: The value was “corresponding increase”.

Q: And the “plasma level of the 12 markers whose level increases in the event of liver injury (Western blot, FIG. 3)” value (fasted 24 hours, after 12-24 hours, after which the levels declined)?
A: The value was “elevated levels”.
